Data on three substances can be found in US10286038B2, “Lysosome membrane protein 2 (LIMP-2) based peptides and related uses” (Northwestern University, priority 2016, dated 2019).

Assay [1] has as its system endogenous GC in Cos 7 cells. Particulars: biotinylated peptide, neutral pH.
Procedure: For pulldown of endogenous and overexpressed GC from N2a cell lysates 20 nmol of LIMP-2-derived peptide (Helix 5 and 3×D) was incubated with 50 μl cell lysate at 4° C. overnight. The cells were harvested in EBC-buffer (Table 3). After blocking and equilibration of the streptavidin beads (see above) the cell lysate/peptide mixtures were added to the beads for 30 min. at room temperature. The supernatant was removed. After extensive washing of the beads with NaPhosphate buffer, the bound peptides and proteins were released from the beads by incubation with Laemmli buffer (see above). After centrifugation for 2 min. at 17,000×g the supernatant was removed (BOUND fraction) and subjected to SDS-Page and Western-blotting. An antibody against human GC (α-hGC, for details see Table 4) was used for detection.
Assay [2] deals with T1, recombinant GC (Cerezyme) (Homo sapiens, UniProt P04062, R534H).
T1 construct: purchased Genzyme Therapeutics, Boston, USA
T1 sequence (P04062 40-536 R534H): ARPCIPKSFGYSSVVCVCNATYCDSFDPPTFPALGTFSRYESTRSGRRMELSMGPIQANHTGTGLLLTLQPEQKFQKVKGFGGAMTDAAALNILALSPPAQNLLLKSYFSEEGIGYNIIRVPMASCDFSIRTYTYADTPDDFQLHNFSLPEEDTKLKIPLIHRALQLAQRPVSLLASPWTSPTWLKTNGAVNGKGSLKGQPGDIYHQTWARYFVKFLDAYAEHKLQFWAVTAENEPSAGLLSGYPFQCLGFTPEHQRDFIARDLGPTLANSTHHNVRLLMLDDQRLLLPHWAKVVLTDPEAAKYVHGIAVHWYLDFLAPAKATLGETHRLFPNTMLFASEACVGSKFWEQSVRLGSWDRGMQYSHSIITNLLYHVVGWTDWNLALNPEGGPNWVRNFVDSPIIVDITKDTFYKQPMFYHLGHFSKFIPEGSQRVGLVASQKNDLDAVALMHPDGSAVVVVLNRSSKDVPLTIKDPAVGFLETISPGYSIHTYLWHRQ
In words: recombinant GC activity assay. Format: biochemical. As to conditions: tenfold molar excess of peptide, acid pH, relative to buffer control. The protocol: (§1) Expression plasmids of LIMP-2 and human GC constructs were generated as described previously (1). For Western blotting nitrocellulose or PVDF membranes were used. EndoH/PNGaseF digests were performed according to manufacturer's instructions (New England Biolabs, Ipswich, USA). For co-immunoprecipitation experiments magnetic agarose G beads (Thermo Fisher Scientific, Waltham, USA) were utilized. Immunofluorescence studies were performed in cells as previously described (1, 3). Cellular co-localization of two proteins was determined by the Pearson's Index (35). Enzyme activity assays of cell lysates or recombinant protein were measured at acid pH using absorbent and fluorescent artificial substrates. For peptide studies, peptides were N-terminally tagged with biotin. If not stated otherwise, recombinant enzyme was incubated with a tenfold higher molarity of peptides. Conditions for pulldown experiments were kept at neutral pH. Protein modelling, molecular analyses, graphics and animations were performed with the UCSF Chimera package.
To determine the enzymatic activity of the recombinant enzymes, lyophilized enzymes were reconstituted in the NaPi buffer described above. The lyophilized samples of wild-type GC (Cerezyme®) and the custom-made recombinant N307S mutant enzyme contain 0.01% polysorbate 80 (Tween 80) (see prescription information for Cerezyme® at the website for Cerezyme®). As indicated in our experiments, the concentration of the detergent is sufficient to support active GC enzyme and to perform the in vitro GC activity assays without adding further detergents to the reaction mix. For enzyme activity assays of recombinant proteins, 0.1-0.2 nmol of GC (Cerezyme®; N370S) and LAMAN were used in the absence or presence of 10× the molar amount of LIMP-2-derived peptides (Table 1) or LIMP-2 ectodomain (1-2 nmol) (Table 3).
All activity assays were performed at acid pH.

Another assay deals with T2, recombinant GC (Homo sapiens, UniProt P04062, R534H).
T2 construct: purchased Genzyme Therapeutics, Boston, USA
T2 sequence (P04062 40-536 R534H): T1 sequence (P04062 40-536 R534H)
As to the kind of experiment: stabilization assay of recombinant GC at 37° C. Format: biochemical. As to conditions: recombinant GC incubated with peptide at 37° C. The protocol:
Proteins were visualized by coomassie staining (CBB). […] See also FIG. 6.
To address the functional impact of the observed interaction between the helix 5 peptide and recombinant GC, we measured GC activity in the presence of a one- to tenfold molar excess of the helix 5 peptide. […] No effect on enzymatic activity after incubation with the helix 5 peptide or the LIMP-2 ectodomain could be found for recombinant α-mannosidase (LAMAN) further emphasizing the specificity of the helix 5 peptide on GC activity (FIG. 6E). […] To analyze if the increase in GC activity is due to stabilization of the enzyme, recombinant GC was incubated with the helix 5 and the control peptide at 37° C. and the activity of GC was measured at regular intervals (FIG. 3F).

The target in assay [3] is T1, recombinant GC (Cerezyme). As to the kind of experiment: peptide pulldown of recombinant GC. Particulars: biotinylated peptide, tenfold molar amount, neutral pH, streptavidin beads. Type of assay: binding. The protocol:
as §1
All peptides were purchased from jpt Peptide Technologies (Berlin, GER). […] The concentration of the peptides as well as the recombinant proteins was determined spectroscopically (Nanodrop 2000c; Thermo Fisher Scientific, Waltham, USA). […]

On to “Biotin-Ttds-LREDDEAMDKAYQQKLFVTHTVDE [3×D control peptide, reference compound]”, for which the “co-precipitation of endogenous GC from cellular lysates” value in assay [1] is recorded as “only the wild-type helix 5 peptide specifically co-precipitated”. For the same substance, the “increase of recombinant GC enzyme activity” value (from here on “increase”) in assay [2] was “did not increase”. Moreover, the “time to complete loss of GC enzymatic activity” value on recombinant GC was at most 72 h. Besides, in assay [3], the “co-precipitation of recombinant GC” value was “only the wild-type helix 5 peptide specifically co-precipitated”.

“Biotin-Ttds-KFERQLREDDEAMDKAYQQKLFVTHTVDEYGRKKRRQRRR [control 3×D TAT-peptide, reference compound]”: in assay [2], the “increase” value was “comparable effect”.

On to “KRVQDVIERFWDFIDQLSINTFGK [random helical control peptide, reference compound]”, for which, in assay [2], the “increase” value was “not able to increase”.
